# According to patent US20200255884A1, “METHOD OF DETECTION OF DNA END(S) AND ITS USE” (INTODNA SP. Z O.O., priority 2017, published 2020):
# What was measured:
# [1] = tested on: HeLa 21-4 cells; assay: DNA ends detection in fixed HeLa cells subjected to damaging agents (H2O2, Tpt), Procedure 1; assay type: cell-based; details: 30 min at 37 °C, H2O2 4 mM, Tpt 20 μM
# Experimental: Procedure: • 1. Pre-preparation (optional): • Incubation of live cells with 0.5-10 mM Tris (5 min-1 h at room temperature (RT)), cells should be monitored for morphological abnormalities. • 2. Fixation and permeabilization: • a. Incubation with 1%-4% formaldehyde solution, 10-15 min, 4° C. (optional) • b. Incubation with an […] detergent (e.g. Triton X-100 (0.25-3%) 10 min-1 h, RT. (optional) • c. Incubation in 70% ethanol in water, 1 h minimum but preferred 12-18 h, −20° C., sample should be stable for several months. (optional but most preferred) • 3. Pre-blocking (optional): • a. Wash (PBS 1×5 min) • b. Streptavidin solution—incubation performed on a droplet, 30 min, RT • c. Wash (PBS 3×5 min) • d. Biotin solution—incubation performed on a droplet, 30 min, RT • e. Wash (PBS 3×5 min) • 4. Increasing accessibility of DNA ends: • Incubation with 0.5-10 mM EDTA in water, 10 min-1 h, RT. • 5. Incorporation procedure: • Incorporation of unmodified and modified nucleotides (e.g. BrdU) using terminal deoxynucleotidyl transferase: • a. incubation is performed on a droplet in a humid chamber • b. samples are rinsed in wash buffers • 6. Blocking: • Incubation with 1-5% BSA solution in PBS (from 1 h to overnight in 4° C., RT). • 7. Incubation with primary antibodies—performed on a droplet in a humid chamber: • a. primary antibodies type 1 (e.g. mouse monoclonal against BrdU), preferred dilution 1:100 in 1-5% BSA, 1 h, RT • b. wash (PBS 3×5 min) • c. primary antibodies type 2 (e.g. rabbit polyclonal against BrdU), preferred dilution 1:100 in 1-5% BSA, 1 h, RT • d. wash (PBS 3×5 min) • 8. PLA procedure: • a. incubation with PLA Probes diluted in 1% BSA (37° C., 60 min, reaction on a droplet, in a humid chamber) in 40 μl of the reaction mixture per one coverslip: • 8 μl of PLA Probe MINUS stock (e.g. anti-mouse) • 8 μl of PLA Probe PLUS stock (e.g. anti-rabbit) • 24 μl of 1% BSA • b. wash samples with Wash Buffer A (2×5 min) • c. ligation—incubation (37° C., 30 min, reaction on a droplet, in a humid chamber) in 40 μl of the reaction mixture per one coverslip: • 8 μl of 5× Ligation stock (Sigma, Duolink, DUO82009), • 31 μl of ultrapure, RNAse/DNAse free, distilled water, • 1 μl of Ligase (1 U/μl) (Sigma, Duolink, DUO82027 or DUO82029) • d. wash samples with Wash Buffer A (2×2 min) • e. amplification—incubation (37° C., 100 min, reaction performed on a droplet, in a humid chamber) in 40 μl of the reaction mixture per one coverslip: • 8 μl of 5× Amplification stock (Sigma, Duolink, DUO82060 or DUO82011), • 31.5 μl of ultrapure, RNAse/DNAse free, distilled water, • 0.5 μl of Polymerase (10 U/μl) (Sigma, Duolink, DUO82028 or DUO82030) • 9. Imaging of samples in PBS using a fluorescence microscope. […]
# [2] = tested on: HeLa 21-4 cells; assay: Detection of DNA breaks induced by photodynamic effect (ethidium bromide + 488 nm laser) in HeLa cells, Procedure 1; assay type: cell-based; details: ethidium bromide (500 μM) 10 min, dose 9 mJ
# Experimental: In this experiment the DNA breaks were induced by treating live cells (HeLa 21-4 cells, obtained from prof. P.R. Cook, Oxford University) with ethidium bromide (500 μM) for 10 min and then parking the laser beam (488 nm) at a chosen place inside the nucleus (dose: 9 mJ) 2 minutes after illumination step 2 of Procedure 1 was performed. The aim of the experiment was to directly detect DNA break (s) inflicted at a specific area of the cell nucleus by a photodynamic effect.
# HeLa 21-4 cells were first seeded on 18-mm coverslips and cultured for 3 days in DMEM supplemented with 10% FBS. After culturing, DNA damage was induced in chosen cells, as described previously, followed by incubation in 70% ethanol in water, 15 h, −20° C. After that, increasing of accessibility of DNA ends (step 4) was performed with 10 mM EDTA in water, 1 h, RT. Incorporation of modified (BrdUTP) nucleotides (Phoenix Flow Systems) by terminal deoxynucleotidyl transferase was performed according to the kit supplier's instructions (APO-BRDU kit, Phoenix Flow Systems). The cells were then incubated with 1% BSA solution in PBS (overnight in 4° C.). The incubation with primary antibodies type 1 and 2 according to step 7 of Procedure 2 were performed using mouse monoclonal anti-BrdU (Abcam, ab8039) and rabbit polyclonal anti-BrdU (Abcam, ab152095) (1:100 in 1% BSA), respectively. […]
SMILES,percentage of cells that show signs of heavy DNA damage (apoptotic cells) in the population ([1]; untreated less than 5%),average number of detectable regions of incorporation of BrdU (free ends of DNA) per cell ([1]; ± standard error of the mean),damaged nuclei with fluorescence focus visible at the illuminated place or in its direct proximity [2] [%]
"CC[C@@]1(O)C(=O)OCc2c1cc1n(c2=O)Cc2cc3c(CN(C)C)c(O)ccc3nc2-1 [Tpt, topotecan]",approximately 18%,16.39±4.92,–
CC[n+]1c(-c2ccccc2)c2cc(N)ccc2c2ccc(N)cc21 [ethidium bromide],–,–,90
